According to ChEMBL document CHEMBL4619780, “Structure-Activity Relationship Studies of Retro-1 Analogues against Shiga Toxin” (J Med Chem, 2020):

Assay: cells
Format: cell-based
Details: Escherichia coli, HeLa

SMILES	EC50 [µM]
CCC(=O)N1CC(=O)Nc2ccc(Br)cc2C1c1ccccc1 (racemic)	6.2
Cc1ccc(C2Nc3ccccc3C(=O)N2c2ccccc2)s1 (configuration not stated)	27.3

Assay: cells
Format: cell-based
Details: Escherichia coli, HeLa
Remark: another data set of the same source

SMILES	EC50 [µM]
C[C@H]1CCC/C=C/[C@@H]2C[C@H](O)C[C@H]2[C@H](O)/C=C/C(=O)O1 [BREFELDIN A]	5

Assay: cells
Format: cell-based
Details: Escherichia coli, HeLa
Remark: another data set of the same source

SMILES	EC50 [µM]
CC[C@@H](C(=O)[C@@H](C)[C@@H](O)[C@H](C)CCc1ccc(C)c(O)c1C(=O)O)[C@H]1O[C@](CC)([C@H]2CC[C@](O)(CC)[C@H](C)O2)C[C@@H]1C [LASALOCID]	2

Assay: cells
Format: cell-based
Details: Escherichia coli, HeLa
Remark: another data set of the same source

SMILES	EC50 [µM]
CCCN1CC(=O)Nc2ccc(Cl)cc2C1c1ccccc1 (configuration not stated)	12.8
CCCN1CC(=O)Nc2ccc(Br)cc2C1c1ccccc1 (configuration not stated)	3.98
CCN1CC(=O)Nc2ccc(Br)cc2C1c1ccccc1 (configuration not stated)	8.81
C#CCCN1CC(=O)Nc2ccc(Br)cc2C1c1ccccc1 (configuration not stated)	6.5
CC1CCCC1N1CC(=O)Nc2ccc(Br)cc2C1c1ccccc1 (mixture of isomers)	3.91
CCCN1CC(=O)Nc2ccc(I)cc2C1c1ccccc1 (configuration not stated)	1.98
O=C1CN(C2CCCC2)C(c2ccccc2)c2cc(F)ccc2N1 (configuration not stated)	2.29
O=C1CN(C2CCCC2)C(c2ccccc2)c2cc(Br)ccc2N1 (configuration not stated)	0.6
O=C1CN(C2CCCC2)C(c2ccccc2)c2ccccc2N1 (configuration not stated)	6.11
CCCC(=O)N1CC(=O)Nc2ccc(Br)cc2C1c1ccccc1 (configuration not stated)	10.9
CC(C1CC1)N1CC(=O)Nc2ccc(Br)cc2C1c1ccccc1 (mixture of isomers)	5.16
CC1CCC(N2CC(=O)Nc3ccc(Br)cc3C2c2ccccc2)C1 (mixture of isomers)	1.29
CCCN1CC(=O)Nc2ccc(Br)cc2C1c1ccccc1F (configuration not stated)	3.87
O=C1CN(C2CCCC2)C(c2ccccc2)c2cc(Cl)ccc2N1 (configuration not stated)	0.844
O=C1CN(C2CCCC2)C(c2ccccc2)c2cc(I)ccc2N1 (racemic)	0.281
CCCN1CC(=O)Nc2ccc(N=[N+]=[N-])cc2C1c1ccccc1 (configuration not stated)	11.1
O=C1CN(C2CCCC2)[C@H](c2ccccc2)c2cc(I)ccc2N1	0.09
O=C1CN(C2CCCCC2)C(c2ccccc2)c2cc(Br)ccc2N1 (configuration not stated)	4.7
CCCN1CC(=O)Nc2ccc(Br)cc2C1c1ccc(F)cc1F (configuration not stated)	12.8

Assay: Inhibition of Escherichia coli shiga toxin
Details: not given

SMILES	EC50 [µM]
O=[N+]([O-])c1ccc(CSc2ncnc3c2ncn3[C@@H]2O[C@H](CO)[C@@H](O)[C@H]2O)cc1 [NITROBENZYLMERCAPTOPURINE RIBONUCLEOSIDE]	25 to 100
CC/C(=C(\c1ccccc1)c1ccc(OCCN(C)C)cc1)c1ccccc1 [TAMOXIFEN]	2 to 10
CC1(C)CC(/C=C/c2ccccc2)=Nc2ccccc2N1	50
Cc1cccc(C)c1Nc1c(-c2cc(Br)ccc2O)nc2[nH]cnn12	25
